Experimental data published in ChEMBL document CHEMBL1154949, “2-Amino-aryl-7-aryl-benzoxazoles as potent, selective and orally available JAK2 inhibitors” (Bioorg Med Chem Lett, 2010).

What was measured:
[1] = target: Tyrosine-protein kinase JAK1 (Homo sapiens, UniProt P23458); assay: Inhibition of GST-tagged JAK1 assessed as inhibition of biotinylated IRS1 substrate phosphorylation after 60 mins by caliper mobility shift assay
[2] = Antiproliferative activity against human SET2 cells harboring JAK2 V617F mutant after 72 hrs by […]; type: functional; conditions: SET-2, 72 h
[3] = target: Tyrosine-protein kinase JAK2 (Homo sapiens, UniProt O60674); assay: Inhibition of GST-tagged JAK2 assessed as inhibition of biotinylated JAK3tide peptide phosphorylation after 60 mins by caliper mobility shift assay
Tyrosine-protein kinase JAK2, sequence (O60674 whole entry): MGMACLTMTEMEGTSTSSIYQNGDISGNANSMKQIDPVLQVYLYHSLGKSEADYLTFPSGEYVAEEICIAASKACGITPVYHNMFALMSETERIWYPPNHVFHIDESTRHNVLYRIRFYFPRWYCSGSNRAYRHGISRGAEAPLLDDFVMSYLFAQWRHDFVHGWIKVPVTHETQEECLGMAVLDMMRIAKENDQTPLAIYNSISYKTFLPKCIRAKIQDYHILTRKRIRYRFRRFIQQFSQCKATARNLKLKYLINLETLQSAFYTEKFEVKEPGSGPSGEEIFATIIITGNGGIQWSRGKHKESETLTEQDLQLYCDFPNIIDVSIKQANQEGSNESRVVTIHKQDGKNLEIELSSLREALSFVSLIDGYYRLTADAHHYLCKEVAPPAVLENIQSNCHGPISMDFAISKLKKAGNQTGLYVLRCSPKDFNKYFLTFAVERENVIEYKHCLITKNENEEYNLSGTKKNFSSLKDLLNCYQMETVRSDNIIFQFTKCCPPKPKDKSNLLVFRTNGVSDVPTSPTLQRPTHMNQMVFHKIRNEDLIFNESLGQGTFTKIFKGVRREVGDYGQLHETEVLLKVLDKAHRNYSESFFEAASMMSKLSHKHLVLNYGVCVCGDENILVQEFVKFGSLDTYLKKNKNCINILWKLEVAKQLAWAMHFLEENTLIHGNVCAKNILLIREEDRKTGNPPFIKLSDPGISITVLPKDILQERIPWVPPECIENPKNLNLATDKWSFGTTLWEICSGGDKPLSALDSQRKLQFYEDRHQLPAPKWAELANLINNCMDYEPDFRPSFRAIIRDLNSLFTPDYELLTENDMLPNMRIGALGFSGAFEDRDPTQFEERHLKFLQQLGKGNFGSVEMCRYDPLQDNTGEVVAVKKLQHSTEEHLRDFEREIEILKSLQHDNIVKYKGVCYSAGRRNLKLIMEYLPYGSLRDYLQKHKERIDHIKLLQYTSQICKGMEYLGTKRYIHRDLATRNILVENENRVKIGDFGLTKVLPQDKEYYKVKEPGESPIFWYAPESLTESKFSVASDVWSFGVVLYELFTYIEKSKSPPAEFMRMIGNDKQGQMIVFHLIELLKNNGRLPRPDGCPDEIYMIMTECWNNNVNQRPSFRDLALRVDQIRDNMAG

[4] = target: T1, Tyrosine-protein kinase JAK3 (Homo sapiens, UniProt P52333); assay: Inhibition of GST-tagged JAK3 assessed as inhibition of biotinylated JAK3tide peptide phosphorylation after 60 mins by caliper mobility shift assay
T1 sequence (P52333 whole entry): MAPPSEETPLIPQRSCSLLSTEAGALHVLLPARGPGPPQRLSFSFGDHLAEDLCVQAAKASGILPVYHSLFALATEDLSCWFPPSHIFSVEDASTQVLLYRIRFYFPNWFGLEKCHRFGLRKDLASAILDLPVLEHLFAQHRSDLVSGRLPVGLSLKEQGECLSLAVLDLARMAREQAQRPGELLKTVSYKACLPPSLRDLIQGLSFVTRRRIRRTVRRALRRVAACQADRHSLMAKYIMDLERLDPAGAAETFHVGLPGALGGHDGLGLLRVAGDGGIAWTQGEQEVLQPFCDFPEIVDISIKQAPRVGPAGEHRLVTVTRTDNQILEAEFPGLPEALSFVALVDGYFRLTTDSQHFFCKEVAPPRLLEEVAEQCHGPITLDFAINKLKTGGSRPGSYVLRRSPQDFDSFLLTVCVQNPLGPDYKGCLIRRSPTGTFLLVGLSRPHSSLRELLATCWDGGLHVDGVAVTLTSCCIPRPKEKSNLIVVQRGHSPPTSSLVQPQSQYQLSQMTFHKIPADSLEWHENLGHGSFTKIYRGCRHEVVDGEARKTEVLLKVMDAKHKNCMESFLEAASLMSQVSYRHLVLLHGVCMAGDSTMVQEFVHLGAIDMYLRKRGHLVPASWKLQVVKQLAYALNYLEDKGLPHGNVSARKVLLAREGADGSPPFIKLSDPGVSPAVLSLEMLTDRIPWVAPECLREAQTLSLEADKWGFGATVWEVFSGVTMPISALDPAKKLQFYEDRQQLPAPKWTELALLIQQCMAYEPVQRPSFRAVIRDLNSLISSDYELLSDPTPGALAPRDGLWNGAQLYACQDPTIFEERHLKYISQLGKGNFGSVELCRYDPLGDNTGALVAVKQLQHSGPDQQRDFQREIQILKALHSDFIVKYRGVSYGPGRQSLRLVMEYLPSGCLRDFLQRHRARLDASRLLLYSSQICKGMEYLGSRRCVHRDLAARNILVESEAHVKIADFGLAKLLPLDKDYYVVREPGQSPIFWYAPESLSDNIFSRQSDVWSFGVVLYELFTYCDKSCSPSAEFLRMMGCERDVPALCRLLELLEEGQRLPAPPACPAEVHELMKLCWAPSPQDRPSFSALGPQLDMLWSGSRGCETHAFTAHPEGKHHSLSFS

[5] = target: Non-receptor tyrosine-protein kinase TYK2 (Homo sapiens, UniProt P29597); assay: Inhibition of GST-tagged TYK2 assessed as inhibition of biotinylated IRS1 substrate phosphorylation after 60 mins by caliper mobility shift assay
Non-receptor tyrosine-protein kinase TYK2, sequence (P29597 whole entry): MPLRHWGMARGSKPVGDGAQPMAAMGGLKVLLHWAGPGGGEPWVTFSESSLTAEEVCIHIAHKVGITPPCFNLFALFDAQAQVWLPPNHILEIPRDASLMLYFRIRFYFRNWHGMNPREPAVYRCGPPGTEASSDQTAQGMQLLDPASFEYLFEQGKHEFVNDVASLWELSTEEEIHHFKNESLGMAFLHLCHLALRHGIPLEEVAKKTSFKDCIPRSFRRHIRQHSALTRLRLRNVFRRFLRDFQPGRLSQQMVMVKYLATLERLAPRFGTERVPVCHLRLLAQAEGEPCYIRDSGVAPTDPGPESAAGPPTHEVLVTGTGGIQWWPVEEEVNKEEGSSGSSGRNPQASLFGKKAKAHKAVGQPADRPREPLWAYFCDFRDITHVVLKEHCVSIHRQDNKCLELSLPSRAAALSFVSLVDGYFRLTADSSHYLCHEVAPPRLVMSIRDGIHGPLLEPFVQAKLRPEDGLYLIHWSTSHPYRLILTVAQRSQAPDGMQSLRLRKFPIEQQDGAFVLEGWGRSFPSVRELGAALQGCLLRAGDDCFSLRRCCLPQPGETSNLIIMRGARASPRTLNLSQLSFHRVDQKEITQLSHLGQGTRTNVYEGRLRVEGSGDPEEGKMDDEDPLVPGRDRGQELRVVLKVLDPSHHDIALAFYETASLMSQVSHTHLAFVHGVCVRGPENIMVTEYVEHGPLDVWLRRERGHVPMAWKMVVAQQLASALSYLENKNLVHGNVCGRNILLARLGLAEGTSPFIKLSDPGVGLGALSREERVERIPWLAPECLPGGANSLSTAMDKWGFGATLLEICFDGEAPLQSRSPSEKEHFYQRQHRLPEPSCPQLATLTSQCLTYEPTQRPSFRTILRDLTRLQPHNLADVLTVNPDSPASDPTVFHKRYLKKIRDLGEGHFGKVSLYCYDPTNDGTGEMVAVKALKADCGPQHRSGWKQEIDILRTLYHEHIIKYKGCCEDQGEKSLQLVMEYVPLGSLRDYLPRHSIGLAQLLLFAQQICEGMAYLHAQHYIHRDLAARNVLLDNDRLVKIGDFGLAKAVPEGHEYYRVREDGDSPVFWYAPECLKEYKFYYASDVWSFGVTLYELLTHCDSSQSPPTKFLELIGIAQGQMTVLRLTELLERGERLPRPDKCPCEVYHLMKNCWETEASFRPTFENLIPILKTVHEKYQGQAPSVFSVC

Rattus norvegicus [6] = assay: Dose normalized AUC in rat at 1 mg/kg, iv; type: ADME, organism-based; design: dose 1 mg/kg, route intravenous; conditions: in vivo
[7] = Clearance in rat at 0.5 ml/kg, iv; type: ADME, organism-based; conditions: in vivo
[8] = Tmax in rat at 2.5 ml/kg, po; type: ADME, organism-based; conditions: in vivo
Rattus norvegicus [9] = assay: Dose normalized AUC in rat at 1 mg/kg, po; type: ADME, organism-based; design: dose 1 mg/kg, route oral; conditions: in vivo
[10] = Cmax in rat at 2.5 ml/kg, po; type: ADME, organism-based; design: dose 2.5 ml/kg, route oral; conditions: in vivo
[11] = Volume of distribution at steady state in rat at 0.5 ml/kg, iv; type: ADME, organism-based; conditions: in vivo, read-out: Vdss
[12] = Oral bioavailability in rat at 2.5 ml/kg; type: ADME, organism-based; conditions: in vivo
[13] = Terminal half life in rat at 0.5 ml/kg, iv; type: ADME, organism-based; conditions: in vivo

Tyrosine-protein kinase JAK1, sequence (P23458 whole entry): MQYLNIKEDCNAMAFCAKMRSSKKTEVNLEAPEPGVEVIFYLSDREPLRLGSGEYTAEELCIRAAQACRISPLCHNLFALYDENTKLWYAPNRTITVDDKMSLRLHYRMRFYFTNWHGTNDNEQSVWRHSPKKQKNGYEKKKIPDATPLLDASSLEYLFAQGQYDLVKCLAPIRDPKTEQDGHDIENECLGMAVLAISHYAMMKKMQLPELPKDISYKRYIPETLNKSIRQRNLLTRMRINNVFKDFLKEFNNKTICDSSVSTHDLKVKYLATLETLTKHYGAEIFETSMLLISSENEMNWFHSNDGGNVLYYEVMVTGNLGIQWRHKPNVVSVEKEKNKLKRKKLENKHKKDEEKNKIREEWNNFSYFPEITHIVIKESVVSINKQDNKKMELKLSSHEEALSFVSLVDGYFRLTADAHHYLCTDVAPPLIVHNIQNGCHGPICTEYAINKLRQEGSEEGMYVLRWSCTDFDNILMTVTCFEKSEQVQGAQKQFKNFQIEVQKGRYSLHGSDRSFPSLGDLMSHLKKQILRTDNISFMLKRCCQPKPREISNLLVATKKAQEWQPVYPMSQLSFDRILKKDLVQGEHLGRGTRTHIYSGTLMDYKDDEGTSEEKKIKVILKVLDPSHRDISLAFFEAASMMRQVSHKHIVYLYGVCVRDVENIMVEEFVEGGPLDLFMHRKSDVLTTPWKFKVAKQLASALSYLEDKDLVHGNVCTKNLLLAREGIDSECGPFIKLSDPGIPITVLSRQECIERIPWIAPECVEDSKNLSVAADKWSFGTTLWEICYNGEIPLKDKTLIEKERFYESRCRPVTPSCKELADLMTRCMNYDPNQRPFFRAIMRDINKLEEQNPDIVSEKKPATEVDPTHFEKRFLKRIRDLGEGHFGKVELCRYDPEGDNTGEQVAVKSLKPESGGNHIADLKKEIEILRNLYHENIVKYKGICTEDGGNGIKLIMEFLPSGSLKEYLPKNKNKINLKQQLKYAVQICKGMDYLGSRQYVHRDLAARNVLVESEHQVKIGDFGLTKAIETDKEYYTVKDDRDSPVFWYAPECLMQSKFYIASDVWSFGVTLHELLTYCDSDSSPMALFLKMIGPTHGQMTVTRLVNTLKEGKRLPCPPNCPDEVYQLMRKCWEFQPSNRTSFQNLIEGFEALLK

| SMILES | IC50 [1] | GI50 [2] | IC50 [3] | IC50 [4] | IC50 [5] | AUC (Rattus norvegicus [6]) | clearance [7] | Tmax [8] | AUC (Rattus norvegicus [9]) | Cmax [10] | Vd [11] | bioavailability [12] | half-life [13] |
| --- | --- | --- | --- | --- | --- | --- | --- | --- | --- | --- | --- | --- | --- |
| Cc1cc(-c2cccc3nc(Nc4ccc(N5CCN(C)CC5)cc4)oc23)ccc1C(=O)N1CCOCC1 | 67 nM | 200 nM | 8 nM | 170 nM | 300 nM |  |  |  |  |  |  |  |  |
| CN(C)C(=O)c1ccc(Nc2nc3cccc(-c4ccc(C(=O)N5CCOCC5)cc4)c3o2)cc1 | 180 nM |  | 39 nM | 620 nM | 730 nM |  |  |  |  |  |  |  |  |
| COc1cc(Nc2nc3cccc(-c4ccccc4)c3o2)cc(OC)c1OC | 710 nM |  |  | > 10000 nM | 3400 nM |  |  |  |  |  |  |  |  |
| Cc1cc(Nc2nc3cccc(-c4ccc(C(=O)N5CCOCC5)cc4)c3o2)ccc1C(=O)N(C)C | 130 nM | 490 nM | 8 nM |  |  |  |  |  |  |  |  |  |  |
| COc1cc(Nc2nc3cccc(-c4ccc(C(=O)N5CCOCC5)cc4)c3o2)cc(OC)c1OC | 27.5 nM | 160 nM | 8 nM | 400 nM | 110 nM |  |  |  |  |  |  |  |  |
| COc1cc(Nc2nc3cccc(-c4ccc(C(=O)N5CCOCC5)c(F)c4)c3o2)cc(OC)c1OC | 22 nM | 150 nM | < 3 nM |  | 63 nM |  |  |  |  |  |  |  |  |
| COc1cc(Nc2nc3cccc(-c4ccccn4)c3o2)cc(OC)c1OC | 760 nM |  | 110 nM | 450 nM | 640 nM |  |  |  |  |  |  |  |  |
| COc1cc(Nc2nc3cccc(-c4ccc(CN5CCOCC5)cc4)c3o2)cc(OC)c1OC | 82 nM | 420 nM |  | 300 nM | 310 nM |  |  |  |  |  |  |  |  |
| COc1cc(Nc2nc3cccc(-c4ccc(NS(C)(=O)=O)cc4)c3o2)cc(OC)c1OC | 47 nM | 130 nM | 5 nM | 130 nM | 150 nM |  |  |  |  |  |  |  |  |
| Cc1cc(Nc2nc3cccc(-c4cc(F)c(CN5CCOCC5)c(F)c4)c3o2)ccc1C(=O)N(C)C | 140 nM | 200 nM | 5 nM | 160 nM | 200 nM |  |  |  |  |  |  |  |  |
| COc1ccc(-c2cccc3nc(Nc4cc(OC)c(OC)c(OC)c4)oc23)cc1 | 8900 nM |  |  | > 10000 nM | > 10000 nM |  |  |  |  |  |  |  |  |
| CNC(=O)c1ccc(Nc2nc3cccc(-c4cc(F)c(CN5CCOCC5)c(F)c4)c3o2)cc1C | 48 nM | 260 nM | 5 nM | 190 nM | 120 nM | 2.391 µM·h | 15 mL/min/kg | 3.5 h | 2.435 µM·h | 242 nM | 2.3 L/kg | 102% | 3.2 h |
| COc1cc(Nc2nc3cccc(-c4cccc(NS(C)(=O)=O)c4)c3o2)cc(OC)c1OC | 680 nM |  | 150 nM | 2000 nM | 3600 nM |  |  |  |  |  |  |  |  |
| COc1cc(Nc2nc3cccc(-c4ccc5ncccc5c4)c3o2)cc(OC)c1OC | 210 nM | 500 nM | 8 nM | 670 nM | 1400 nM |  |  |  |  |  |  |  |  |
| COc1cc(Nc2nc3cccc(-c4cccc(Cl)c4)c3o2)cc(OC)c1OC | 5300 nM |  | 440 nM | > 10000 nM | > 10000 nM |  |  |  |  |  |  |  |  |
| Cc1cc(Nc2nc3cccc(-c4cc(F)c(CN5CCOCC5)c(F)c4)c3o2)ccc1C(=O)NCCCN(C)C | 35 nM | 410 nM | 5 nM | 220 nM | 97 nM |  |  |  |  |  |  |  |  |
